Publication PMC12195956 (Molecules, 2025)
Converted amounts (≈) assume the structure as drawn. Read-outs that look alike come from different tables or passages of the source. Each block holds one molecule with its values, some of them ahead of it.

Columns and labels:
[1] = previously reported value ref 37; cited from earlier work
[2] = Solubility screening of anthralin in oils, surfactants and co-surfactants; assay type: physicochemical; settings: read-out: drug solubility
Procedure: Excess drug was dissolved in 1 mL of the aforementioned oils, surfactant, and co-surfactant, and vortexed continuously for 48 h. The samples were centrifuged at 5000–7000 rpm for 15 min after which they were left to rest for 72 h.

[3] = test system: L929 (Mouse Connective Cell Line); assay: MTT assay (antipsoriatic activity); assay type: cell-based
Procedure: The L929 mouse connective tissue cell line was received from the National Center for Cell Sciences (NCCS), Pune, India and grown in DMEM media containing 10% fetal bovine serum. The cells were kept at 37 °C in a 5% CO2 incubator and seeded at a density of 1 × 10⁴ cells/mL in culture media for 24 h. To conduct the experiment, 70 μL of cell suspension (1 × 10^4 cells/well) were added to 100 μL of culture media on a 96-well tissue culture plate. Sample was added to wells at varying doses (25, 50, and 100 μg/mL), while control wells contained 0.2% DMSO in PBS with cell culture. All experiments were performed in triplicate to ensure reliability and reproducibility of the results. Control wells were utilized to evaluate cell viability and calculate the percentage of cells that survived after incubation. The cultures were incubated at 37 °C with 5% CO2 for 24 h in a CO2 incubator (Thermo Scientific BB150, Thermo Fisher Scientific Inc., Waltham, MA, USA). After incubation, the media were removed and 20 μL of MTT reagent (5 mg/mL in PBS) was added. The plates were incubated for a further 4 h at 37 °C to allow live cells to convert the MTT into formazan crystals, which were then viewed under a microscope. After removing the medium, 200 μL of DMSO was added and incubated at 37 °C for 10 min while protected from light with aluminum foil. Each sample’s absorbance was measured at 570 nm using an ELISA microplate reader (Benesphera E21, Avantor Performance Materials India Private Limited, Gurgoan, India), with triplicates tested for accuracy.

[4] = pKa and percentage ionization (Henderson–Hasselbalch equation); assay type: physicochemical
Excerpt: One study reported an average pH of 5.2 in psoriatic skin, compared to 5.6 in healthy skin [36]. […] The optimal pH range for topical application is 6–7 to balance efficacy and skin irritation.

[5] = test system: Propionibacterium; assay: Antibacterial activity, zone of inhibition; assay type: cell-based; settings: 24 h incubation
Procedure: Nutrient Agar (NA-Himedia, HiMedia Laboratories Pvt. Ltd., Mumbai, India) was prepared by dissolving 28.0 g in 1000 mL distilled water, sterilized at 121 °C for 15 min, and poured into sterile Petri plates. Propionibacterium was used for microbial assays. A 24 h pure culture was prepared by suspending the microorganisms in saline solution, streaking onto culture slants, and incubating at 37 °C. Standard solutions, including Clindamycin (25 mg/mL), were prepared in sterile water and stored under refrigeration. Plates were prepared using the pour plate method by pouring melted agar into sterile plates and allowing its solidification before use.
A sterile, non-toxic cotton swab was dipped in the standardized inoculums (turbidity was adjusted to achieve confluent growth on the Petri plate), and the entire plate’s agar surface was streaked with the swab three times, turning the plate at a 60-degree angle between streaking. The streaked inoculums were then allowed to dry for 5–15 min with the lid on. Then, using sterile well punches, a bore was punched on the prepared plates (8 mm). With the assistance of a sterile micropipette, a 10 μL dosage of produced microemulsion and standard medication Clindamycin were injected into each bore in an aseptic environment. Plates were maintained at room temperature for 30 min before being incubated for 24 h at 37 °C. The diameter of the inhibitory zones was measured using a scale in mm.
The antibacterial potential of test compounds was assessed using the mean diameter of the zone of inhibition around the disc in millimeters. The zones of inhibition of the studied microorganisms by the substances were determined on a millimeter scale.

solubility at 48 h ([2]; PEG 400, 27 °C, organic solvent or mixture, thermodynamic from solid, in PEG 400, room temperature (27 ± 1 °C)): 14.1 mg/mL (≈ 62.2 mM)
solubility at 48 h ([2]; Span 20, thermodynamic from solid, in Span 20): 4.23 mg/mL (≈ 18.7 mM)
solubility at 48 h ([2]; Transcutol-P, organic solvent or mixture, thermodynamic from solid, in Transcutol-P): 15.6 mg/mL (≈ 68.8 mM)
solubility at 48 h ([2]; Tween 20, thermodynamic from solid, in Tween 20): 11.6 mg/mL (≈ 51.2 mM)
solubility at 48 h ([2]; Tween 80, 27 °C, thermodynamic from solid, in Tween 80, room temperature (27 ± 1 °C)): 56 mg/mL (≈ 248 mM)
solubility at 48 h ([2]; castor oil, oil or lipid, thermodynamic from solid, in castor oil): 23.9 mg/mL (≈ 106 mM)
solubility at 48 h ([2]; ethanol, organic solvent or mixture, thermodynamic from solid, in ethanol): 9.23 mg/mL (≈ 40.8 mM)
solubility at 48 h ([2]; oleic acid, 27 °C, oil or lipid, thermodynamic from solid, in oleic acid, room temperature (27 ± 1 °C)): 44.2 mg/mL (≈ 196 mM)
solubility at 48 h ([2]; olive oil, oil or lipid, thermodynamic from solid, in olive oil): 28.2 mg/mL (≈ 125 mM)
percentage ionization ([4]; pH 5.2 (psoriatic skin)): 0.01%
percentage ionization ([4]; pH 5.6 (healthy skin)): 0.03%
SMILES: O=C1c2c(O)cccc2Cc2cccc(O)c21 [Anthralin]
pKa [1]: 9.06
Inhibition % ([3]; L929, 100 µg/mL, 24 h): 60.345%
inhibition at 25 µg/mL ([3]; Mus musculus, L929, 24 h, L929, 25 µg/mL, 24 h): 47.9%
inhibition at 50 µg/mL ([3]; Mus musculus, L929, 24 h, L929, 50 µg/mL, 24 h): 53%
inhibition at 100 µg/mL ([3]; Mus musculus, L929, 24 h, L929, 100 µg/mL, 24 h): 60.3%
viability at 25 µg/mL ([3]; Mus musculus, L929, 25 µg/mL, 24 h): 52.1%
viability at 50 µg/mL ([3]; Mus musculus, L929, 50 µg/mL, 24 h): 47%
viability at 100 µg/mL ([3]; Mus musculus, L929, 100 µg/mL, 24 h): 39.7%
IC50 ([3]; Mus musculus, L929, from linear regression of % inhibition vs. concentration): 36.2 µg/mL (≈ 0.16 mM)

SMILES: CCC[C@@H]1C[C@@H](C(=O)N[C@@H]([C@H]2O[C@H](SC)[C@H](O)[C@@H](O)[C@H]2O)[C@H](C)Cl)N(C)C1 [Clindamycin]
zone of inhibition at 25 µg/mL ([5]; 25 μg/mL): 11.3 ± 1.15 mm
zone of inhibition at 50 µg/mL ([5]; 50 μg/mL): 13.7 ± 1.15 mm
zone of inhibition at 100 µg/mL ([5]; 100 μg/mL): 20.7 ± 1.15 mm

SMILES: O=c1[nH]cc(F)c(=O)[nH]1 [Batch 5-FU, 5-flurouracil]
Cell Viability % ([3]; L929, 25 µg/mL, 24 h): 33.90%
Inhibition % ([3]; L929, 25 µg/mL, 24 h): 66.10%
Cell Viability % ([3]; L929, 50 µg/mL, 24 h): 29.87%
Inhibition % ([3]; L929, 50 µg/mL, 24 h): 70.13%
Cell Viability % ([3]; L929, 100 µg/mL, 24 h): 21.00%
Inhibition % ([3]; L929, 100 µg/mL, 24 h): 79.00%
